Data from US5681846A (priority 1995, dated 1997).
Entries after “also recorded” stand apart in the source; their conditions may differ. Where two headings read alike, the source gives them in different places.

How the values were obtained:
[1] = assay type: physicochemical; settings: for Precipitation Time (earliest among triplicate samples): Cremophor EL 8.3%
From the text: Physical stability testing of extended stability formulations has been evaluated for the effects of changing alcohol concentration on precipitation times in infusion solutions.
In the 15 to 20% range, the time to precipitation varied from about 9 to 14 days in most samples. […] Within the 15 to 20% group, however, the time to precipitation was variable and not linearly related to alcohol content.
^a Cremophor ® EL concentration held constant at 8.3%, the same a
^b Earliest precipitation among triplicate samples.

[2] = Visual examination of paclitaxel test solutions (physical compatibility); assay type: physicochemical; parameters: key to Visual observation: --: Light blue hazy solution free of particulate matter; settings: for Visual observation, all samples: days 1 and 3
Experimental: (§1) Aliquots were removed from each bag initially and after 1, 3, 5, and 7 days and stored in 2-ml sterile vials at -70° C. Grossly precipitated solutions were assayed after 31 days of storage. Duplicate HPLC determinations were performed on the aliquots from each test solution.
(§2) Physical compatibility was evaluated by visual examination and turbidimetric quantification. […] The tubes and caps were triple-washed in high-performance liquid chromatography-grade water and rinsed exteriorly with ethanol. To minimize the effects of scratches and imperfections in the glass, a thin layer of silicone oil was applied to the exterior of the culture tubes.
Visual examination of the samples was performed with the unaided eye in normal laboratory fluorescent light. Samples with no obvious visual incompatibility were further examined using a Tyndall beam (high-intensitymonodirectional light source)(Dolan-Jenner, Woburn, Mass.). The test tubes were illuminated from below and viewed at a 90° angle against a dark background to enhance the visibility of small particles.
(§3) Visual inspections and turbidimetric assessments were performed initially and after 1, 3, 5, 7, 14, and 31 days of storage at each temperature protected from light.

[3] = Turbidimetric assessment of paclitaxel test solutions; assay type: physicochemical; settings: during the study
Experimental: as §1, §2
Turbidimetric assessments of the normally hazy paclitaxel solutions were made using a color-correcting turbidimeter (Hatch, Loveland, Colo.). The turbidimeter was calibrated in the manner described previously (Trissel et al., 1992). Triplicate determinations were made for each sample; the turbidimeter was allowed to return to zero between determinations. Incompatibility has been defined as an increase in turbidity of 0.5 nephelometric turbidity unit (NTU) or more (Trissel et al., 1993).
as §3

[4] = Chemical stability of paclitaxel in infusion solutions by HPLC; assay type: physicochemical; settings: 0.1 and 1 mg/mL; D5W and 0.9% NaCl
Experimental: The liquid chromatograph consisted of a multisolvent delivery pump (Waters Chromatography, Milford, Mass.), a programmable multiple-wavelength ultraviolet light detector (Waters), a WISP autosampler,(Waters) and a HPLC analytical column (Vydac, Hesperia, Calif.) (250×4.6 mm, 5 μm particle size). The system was controlled and integrated by a personal computer (NEC, Boxborough, Mass.). The mobile phase consisted of 53% acetonitrile in water. The flow rate was 1.5 ml/min and detection was performed at 254 nm. […] Sample aliquots were filtered through 5 μm filter needle.
Precision expressed as percent relative standard deviation was 0.76%. Calibration curves were constructed from a linear plot of peak area versus concentration (0,025 to 0.15 mg/mL). […] The intra-day and inter-day coefficients of variation were 1.4% and 2.0%, respectively.
Aliquots were removed from each bag initially and after 1, 3, 5, and 7 days and stored in 2-ml sterile vials at -70° C. […] Duplicate HPLC determinations were performed on the aliquots from each test solution.

tubulin = settings: cited from earlier work
cell replication = settings: in vitro; cited from earlier work
lymphoma, breast cancer = settings: cited from earlier work
[5] = cited from earlier work

## CC(=O)O[C@H]1C(=O)[C@@]2(C)[C@H]([C@H](OC(=O)c3ccccc3)[C@]3(O)C[C@H](OC(=O)[C@H](O)[C@@H](NC(=O)c4ccccc4)c4ccccc4)C(C)=C1C3(C)C)[C@]1(OC(C)=O)CO[C@@H]1C[C@@H]2O [paclitaxel]
[1]; 1 mg/mL in D5W, alcohol 15%
  Precipitation Time (earliest among triplicate samples): 14 days
[1]; 1 mg/mL in D5W, alcohol 16%
  Precipitation Time (earliest among triplicate samples): 12 days
[1]; 1 mg/mL in D5W, alcohol 17%
  Precipitation Time (earliest among triplicate samples): 10 days
[1]; 1 mg/mL in D5W, alcohol 18%
  Precipitation Time (earliest among triplicate samples): 12 days
[1]; 1 mg/mL in D5W, alcohol 19%
  Precipitation Time (earliest among triplicate samples): 9 days
[1]; 1 mg/mL in D5W, alcohol 20%
  Precipitation Time (earliest among triplicate samples): 9 days
[1]; 1 mg/mL in D5W, alcohol 25%
  gross precipitation: 21 days
  Precipitation Time (earliest among triplicate samples): 14 days
[1]; 1 mg/mL in D5W, alcohol 25%, one sample
  earliest microprecipitation: 14 days
[1]; 1 mg/mL in D5W, alcohol 30%
  Precipitation Time (earliest among triplicate samples): > 60 days
[1]; 1 mg/mL in D5W, alcohol 30 and 50%, any sample
  storage time without precipitation or microcrystals: > 60 days
[1]; 1 mg/mL in D5W, alcohol 50%
  Precipitation Time (earliest among triplicate samples): > 60 days
[1]; alcohol 19% and 20% (footnote c)
  precipitation among triplicate samples: One sample precipitated at 9 days, 2 samples at 14 days or more.
[1]; alcohol 25% (footnote d)
  precipitation among triplicate samples: One sample did not precipitated after 60 days.
[1]; alcohol 30% and 50% (footnote e)
  precipitation among triplicate samples: All three samples were still in solution after 60 days.
[2]; 0.1 and 1 mg/mL, D5W and 0.9% NaCl
  precipitation observed visually / by Tyndall beam: all samples were initially free of particulate matter but had paclitaxel's normal haze; also recorded: Large amounts of white flocculent precipitate appeared after 31 days of storage in many of the samples and after 14 days in a few samples; also recorded: Two samples had small amounts of crystalline precipitate within five days of storage; also recorded: Most samples had crystalline precipitation within a week
[2]; 0.1 and 1 mg/mL, D5W and 0.9% NaCl, 4, 22, 32 °C
  chemical stability and physical compatibility time: All samples remained compatible in both infusion solutions for at least three days; also recorded: chemically stable and physically compatible for three days
[2]; 0.9% NaCl, 0.1 mg/mL, 4 °C, day 0
  Visual observation: --
[2]; 0.9% NaCl, 0.1 mg/mL, 4 °C, day 7
  Visual observation: Tiny crystals
[2]; 0.9% NaCl, 0.1 mg/mL, 22 °C, day 0
  Visual observation: --
[2]; 0.9% NaCl, 0.1 mg/mL, 22 °C, day 5
  Visual observation: --
[2]; 0.9% NaCl, 0.1 mg/mL, 22 °C, day 7
  Visual observation: Tiny crystals
[2]; 0.9% NaCl, 0.1 mg/mL, 32 °C, day 0
  Visual observation: --
[2]; 0.9% NaCl, 0.1 mg/mL, 32 °C, day 5
  Visual observation: --
[2]; 0.9% NaCl, 0.1 mg/mL, 32 °C, day 7
  Visual observation: Tiny crystals
[2]; 0.9% NaCl, 1 mg/mL, 4 °C, day 0
  Visual observation: --
[2]; 0.9% NaCl, 1 mg/mL, 4 °C, day 5
  Visual observation: --
[2]; 0.9% NaCl, 1 mg/mL, 4 °C, day 7
  Visual observation: Tiny crystals
[2]; 0.9% NaCl, 1 mg/mL, 22 °C, day 0
  Visual observation: --
[2]; 0.9% NaCl, 1 mg/mL, 22 °C, day 5
  Visual observation: --
[2]; 0.9% NaCl, 1 mg/mL, 22 °C, day 7
  Visual observation: Tiny crystals
[2]; 0.9% NaCl, 1 mg/mL, 32 °C, day 0
  Visual observation: --
[2]; 0.9% NaCl, 1 mg/mL, 32 °C, day 5
  Visual observation: --
[2]; 0.9% NaCl, 1 mg/mL, 32 °C, day 7
  Visual observation: Tiny crystals
[2]; 0.9% NaCl, 1 mg/mL, 32 °C, day 14
  Visual observation: Tiny crystals
[2]; 0.9% NaCl
  Visual observation, all samples: particulatefree
[2]; 5% dextrose, 0.1 mg/mL, 4 °C, day 0
  Visual observation: --
[2]; 5% dextrose, 0.1 mg/mL, 4 °C, day 5
  Visual observation: --
[2]; 5% dextrose, 0.1 mg/mL, 4 °C, day 7
  Visual observation: --
[2]; 5% dextrose, 0.1 mg/mL, 4 °C, day 14
  Visual observation: --
[2]; 5% dextrose, 0.1 mg/mL, 22 °C, day 0
  Visual observation: --
[2]; 5% dextrose, 0.1 mg/mL, 22 °C, day 5
  Visual observation: --
[2]; 5% dextrose, 0.1 mg/mL, 32 °C, day 0
  Visual observation: --
[2]; 5% dextrose, 0.1 mg/mL, 32 °C, day 5
  Visual observation: --
[2]; 5% dextrose, 1 mg/mL, 4 °C, day 0
  Visual observation: --
[2]; 5% dextrose, 1 mg/mL, 22 °C, day 0
  Visual observation: --
[2]; 5% dextrose, 1 mg/mL, 22 °C, day 5
  Visual observation: --
[2]; 5% dextrose, 1 mg/mL, 32 °C, day 0
  Visual observation: --
[2]; 5% dextrose, 1 mg/mL, 32 °C, day 5
  Visual observation: --
[2]; 5% dextrose
  Visual observation, all samples: particulatefree
[3]
  change in turbidity: did not result in any change during the study except for samples with noticeable precipitation
[4]
  decomposition products on HPLC chromatograms: No decomposition products appeared on the HPLC chromatograms
tubulin
  tubulin polymerization: markedly enhances all aspects of tubulin polymerization; initiation and elongation are more rapid
Cell replication
  inhibition of cell replication: potent inhibitor of cell replication in vitro
lymphoma, breast cancer
  activity in clinical trials: has shown activity against lymphoma, breast cancer, and possibly other tumors
[5]; clinical formulation diluted in intravenous infusion fluids
  appearance after dilution in infusion fluids: slight haze and, occasionally, a few minute particles
[5]; clinical formulation
  physical stability in aqueous solutions: physically unstable, and in aqueous solutions exhibits the formation of paclitaxel precipitate
